Reference: patent US20100267561A1, “HERBICIDAL PYRIDAZINONE DERIVATIVES” (priority 2007, published 2010)

Key:
Assay type in all cases: in vivo
[1] = tested on: Italian ryegrass (Lolium multiflorum); experiment: Test B pre-/postemergence plant response; settings: for Ryegrass, Italian plant response rating: 8 g ai/ha
Description: (§1) Seeds of plant species selected from blackgrass (Alopecurus myosuroides), downy bromegrass (Bromus tectorum), green foxtail (Setaria viridis), Italian ryegrass (Lolium multiflorum), wheat (Triticum aestivum), wild oat (Avena fatua), catchweed bedstraw (Galium aparine), bermudagrass (Cynodon dactylon), surinam grass (Brachiaria decumbens), cocklebur (Xanthium strumarium), corn (Zea mays), large crabgrass (Digitaria sanguinalis), woolly cupgrass (Eriochloa villosa), giant foxtail (Setaria faberii), goosegrass (Eleusine indica), johnsongrass (Sorghum halepense), kochia (Kochia scoparia), lambsquarters (Chenopodium album), morningglory (Ipomoea coccinea), eastern black (E.B.) nightshade (Solanum ptycanthum), yellow nutsedge (Cyperus esculentus), pigweed (Amaranthus retroflexus), common ragweed (Ambrosia elation), Russian thistle (Salsola iberica), soybean (Glycine max), common (oilseed) sunflower (Helianthus annuus), and velvetleaf (Abutilon theophrasti) were planted and treated preemergence with test chemicals formulated in a non-phytotoxic solvent mixture which included a surfactant.
(§2) At the same time, plants selected from these crop and weed species and also winter barley (Hordeum vulgare), canarygrass (Phalaris minor), chickweed (Stellaria media) and windgrass (Apera spica-venti) were treated with postemergence applications of some of the test chemicals formulated in the same manner. Plants ranged in height from 2 to 18 cm (1- to 4-leaf stage) for postemergence treatments.
(§3) Plant species in the flooded paddy test consisted of rice (Oryza sativa), umbrella sedge (Cyperus difformis), ducksalad (Heteranthera limosa) and barnyardgrass (Echinochloa crus-galli) grown to the 2-leaf stage for testing. At time of treatment, test pots were flooded to 3 cm above the soil surface, treated by application of test compounds directly to the paddy water, and then maintained at that water depth for the duration of the test. Treated plants and controls were maintained in a greenhouse for 13 to 15 days, after which time all species were compared to controls and visually evaluated. Plant response ratings, summarized in Table B, are based on a scale of 0 to 100 where 0 is no effect and 100 is complete control. A dash (-) response means no test result.

[2] = tested on: Russian thistle (Salsola iberica); experiment: Test B pre-/postemergence plant response; settings: Preemergence
Description: as §1, §2, §3

[3] = tested on: bermudagrass (Cynodon dactylon); experiment: Test B pre-/postemergence plant response; settings: for Bermudagrass plant response rating: 8 g ai/ha
Description: as §1, §2, §3

[4] = tested on: cocklebur (Xanthium strumarium); experiment: Test B pre-/postemergence plant response; settings: for Cocklebur plant response rating: 8 g ai/ha
Description: as §1, §2, §3

[5] = tested on: common ragweed (Ambrosia elation); experiment: Test B pre-/postemergence plant response; settings: for Ragweed plant response rating: 8 g ai/ha
Description: as §1, §2, §3

[6] = tested on: goosegrass (Eleusine indica); experiment: Test B pre-/postemergence plant response; settings: for Goosegrass plant response rating: 8 g ai/ha
Description: as §1, §2, §3

[7] = tested on: lambsquarters (Chenopodium album); experiment: Test B pre-/postemergence plant response; settings: for Lambsquarters plant response rating: 8 g ai/ha
Description: as §1, §2, §3

[8] = tested on: large crabgrass (Digitaria sanguinalis); experiment: Test B pre-/postemergence plant response; settings: for Crabgrass, Large plant response rating: 8 g ai/ha
Description: as §1, §2, §3

soybean (Glycine max) = experiment: Test B pre-/postemergence plant response; settings: for Soybean plant response rating: 8 g ai/ha
Description: as §1, §2, §3

[9] = tested on: velvetleaf (Abutilon theophrasti); experiment: Test B pre-/postemergence plant response; settings: for Velvetleaf plant response rating: 8 g ai/ha
Description: as §1, §2, §3

[10] = tested on: barnyardgrass (Echinochloa crus-galli); experiment: Test B flooded paddy test plant response
How it was run: (§4)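 Paddy-water application to 2-leaf plants in pots held under 3 cm of flooding; response is a 0–100 visual control rating against controls after 13 to 15 days, and a dash marks a missing result.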

[11] = tested on: ducksalad (Heteranthera limosa); experiment: Test B flooded paddy test plant response; settings: Flood (flooded paddy test), scale 0 to 100, 0 no effect, 100 complete control
How it was run: as §4

rice (Oryza sativa) = experiment: Test B flooded paddy test plant response
How it was run: as §4

[12] = tested on: umbrella sedge (Cyperus difformis); experiment: Test B flooded paddy test plant response; settings: Flood (flooded paddy test), scale 0 to 100, 0 no effect, 100 complete control
How it was run: as §4

[13] = Postemergence, 16 g ai/ha, scale 0 to 100
[14] = Postemergence, 31 g ai/ha, scale 0 to 100, 0 no effect, 100 complete control
[15] = Postemergence, 62 g ai/ha, scale 0 to 100, 0 no effect, 100 complete control
[16] = Preemergence, 16 g ai/ha, scale 0 to 100 (0 no effect, 100 complete control)
[17] = Preemergence, 31 g ai/ha, 0 to 100 scale, 0 no effect, 100 complete control
[18] = Preemergence, 62 g ai/ha, scale 0 to 100
[19] = Flood (flooded paddy test), 62 g ai/ha, scale 0 to 100, 0 no effect, 100 complete control
[20] = Flood (flooded paddy test), 125 g ai/ha, scale 0 to 100, 0 no effect, 100 complete control
[21] = Flood (flooded paddy test), 250 g ai/ha, scale 0 to 100, 0 no effect, 100 complete control
[22] = Flood, 31 g ai/ha, scale 0 to 100

Cc1cc(-c2ccc(Cl)cc2)nn1-c1c(OC(=O)CC(C)C)cnn(C)c1=O [Compound 37]
Ryegrass, Italian plant response rating ([1]; postemergence, 0-100 scale): 60 | Plant response rating, Ryegrass, Italian [1, 13]: 90 | Plant response rating, Ryegrass, Italian [1, 14]: 98 | Plant response rating, Ryegrass, Italian [1, 15]: 100 | Plant response rating, Ryegrass, Italian [1, 16]: 90 | Plant response rating, Ryegrass, Italian [1, 17]: 98 | Plant response rating, Ryegrass, Italian [1, 18]: 100 | Ryegrass, Italian plant response rating ([1]; Preemergence, scale 0 to 100): 45 | Plant response rating, Russian Thistle ([2]; 16 g ai/ha, scale 0 to 100 (0 no effect, 100 complete control)): 0 | Plant response rating, Russian Thistle ([2]; 31 g ai/ha, 0 to 100 scale, 0 no effect, 100 complete control): 0 | Plant response rating, Russian Thistle ([2]; 62 g ai/ha, scale 0 to 100): 90 | Russian Thistle plant response rating ([2]; 8 g ai/ha, scale 0 to 100): 0 | Bermudagrass plant response rating ([3]; postemergence, 0-100 scale): 80 | Plant response rating, Bermudagrass [3, 13]: 85 | Plant response rating, Bermudagrass [3, 14]: 100 | Plant response rating, Bermudagrass [3, 15]: 100 | Bermudagrass plant response rating ([3]; Preemergence, scale 0 to 100 (0 no effect, 100 complete control)): 90 | Plant response rating, Bermudagrass [3, 16]: 90 | Plant response rating, Bermudagrass [3, 17]: 100 | Plant response rating, Bermudagrass [3, 18]: 100 | Cocklebur plant response rating ([4]; postemergence, 0-100 scale): 0 | Plant response rating, Cocklebur [4, 13]: 0 | Plant response rating, Cocklebur [4, 14]: 0 | Plant response rating, Cocklebur [4, 15]: 0 | Plant response rating, Cocklebur [4, 16]: 0 | Plant response rating, Cocklebur [4, 17]: 0 | Plant response rating, Cocklebur [4, 18]: 0 | Cocklebur plant response rating ([4]; Preemergence, scale 0 to 100): 0 | Ragweed plant response rating ([5]; postemergence, 0-100 scale): 0 | Plant response rating, Ragweed [5, 13]: 0 | Plant response rating, Ragweed [5, 14]: 0 | Plant response rating, Ragweed [5, 15]: 0 | Plant response rating, Ragweed [5, 16]: 0 | Plant response rating, Ragweed [5, 17]: 0 | Plant response rating, Ragweed [5, 18]: 0 | Ragweed plant response rating ([5]; Preemergence, scale 0 to 100): 0 | Goosegrass plant response rating ([6]; postemergence, 0-100 scale): 100 | Plant response rating, Goosegrass [6, 13]: 100 | Plant response rating, Goosegrass [6, 14]: 100 | Plant response rating, Goosegrass [6, 15]: 100 | Plant response rating, Goosegrass [6, 16]: 90 | Plant response rating, Goosegrass [6, 17]: 98 | Plant response rating, Goosegrass [6, 18]: 100 | Goosegrass plant response rating ([6]; Preemergence, scale 0 to 100): 75 | Lambsquarters plant response rating ([7]; postemergence, 0-100 scale): 0 | Plant response rating, Lambsquarters [7, 13]: 0 | Plant response rating, Lambsquarters [7, 14]: 0 | Plant response rating, Lambsquarters [7, 15]: 0 | Plant response rating, Lambsquarters [7, 16]: 0 | Plant response rating, Lambsquarters [7, 17]: 0 | Plant response rating, Lambsquarters [7, 18]: 0 | Lambsquarters plant response rating ([7]; Preemergence, scale 0 to 100): 0 | Crabgrass, Large plant response rating ([8]; postemergence, 0-100 scale): 70 | Plant response rating, Crabgrass, Large [8, 13]: 70 | Plant response rating, Crabgrass, Large [8, 14]: 85 | Plant response rating, Crabgrass, Large [8, 15]: 100 | Plant response rating, Crabgrass, Large [8, 16]: 98 | Plant response rating, Crabgrass, Large [8, 17]: 100 | Plant response rating, Crabgrass, Large [8, 18]: 100 | Crabgrass, Large plant response rating ([8]; Preemergence, scale 0 to 100): 70 | Soybean plant response rating (soybean (Glycine max); postemergence, 0-100 scale): 0 | Plant response rating, Soybean (soybean (Glycine max); [13]): 0 | Plant response rating, Soybean (soybean (Glycine max); [15]): 0 | Plant response rating, Soybean (soybean (Glycine max); [16]): 0 | Plant response rating, Soybean (soybean (Glycine max); [17]): 0 | Plant response rating, Soybean (soybean (Glycine max); [18]): 0 | Soybean plant response rating (soybean (Glycine max); Preemergence, scale 0 to 100): 0 | Velvetleaf plant response rating ([9]; postemergence, 0-100 scale): 0 | Plant response rating, Velvetleaf [9, 13]: 0 | Plant response rating, Velvetleaf [9, 15]: 0 | Plant response rating, Velvetleaf [9, 16]: 0 | Plant response rating, Velvetleaf [9, 17]: 0 | Plant response rating, Velvetleaf [9, 18]: 0 | Velvetleaf plant response rating ([9]; Preemergence, scale 0 to 100): 0 | Plant response rating, Barnyardgrass [10, 19]: 60 | Plant response rating, Barnyardgrass [10, 20]: 100 | Plant response rating, Barnyardgrass [10, 21]: 100 | Plant response rating, Barnyardgrass [10, 22]: 30 | Plant response rating, Ducksalad ([11]; 62 g ai/ha): 70 | Plant response rating, Ducksalad ([11]; 125 g ai/ha): 70 | Plant response rating, Ducksalad ([11]; 250 g ai/ha): 75 | Plant response rating, Rice (rice (Oryza sativa); [19]): 70 | Plant response rating, Rice (rice (Oryza sativa); [20]): 80 | Plant response rating, Rice (rice (Oryza sativa); [21]): 90 | Plant response rating, Rice (rice (Oryza sativa); [22]): 0 | Plant response rating, Sedge, Umbrella ([12]; 62 g ai/ha): 0 | Plant response rating, Sedge, Umbrella ([12]; 125 g ai/ha): 0 | Plant response rating, Sedge, Umbrella ([12]; 250 g ai/ha): 60
